Biological target: human PRMT3 (Homo sapiens, UniProt O60678)
Assay: PRMT3 Biochemical Assay (3H-SAM Flashplate, peptide substrate)
Conditions: single experiment or average of multiple experiments

human PRMT3, sequence (O60678 with tags, fused parts or gaps): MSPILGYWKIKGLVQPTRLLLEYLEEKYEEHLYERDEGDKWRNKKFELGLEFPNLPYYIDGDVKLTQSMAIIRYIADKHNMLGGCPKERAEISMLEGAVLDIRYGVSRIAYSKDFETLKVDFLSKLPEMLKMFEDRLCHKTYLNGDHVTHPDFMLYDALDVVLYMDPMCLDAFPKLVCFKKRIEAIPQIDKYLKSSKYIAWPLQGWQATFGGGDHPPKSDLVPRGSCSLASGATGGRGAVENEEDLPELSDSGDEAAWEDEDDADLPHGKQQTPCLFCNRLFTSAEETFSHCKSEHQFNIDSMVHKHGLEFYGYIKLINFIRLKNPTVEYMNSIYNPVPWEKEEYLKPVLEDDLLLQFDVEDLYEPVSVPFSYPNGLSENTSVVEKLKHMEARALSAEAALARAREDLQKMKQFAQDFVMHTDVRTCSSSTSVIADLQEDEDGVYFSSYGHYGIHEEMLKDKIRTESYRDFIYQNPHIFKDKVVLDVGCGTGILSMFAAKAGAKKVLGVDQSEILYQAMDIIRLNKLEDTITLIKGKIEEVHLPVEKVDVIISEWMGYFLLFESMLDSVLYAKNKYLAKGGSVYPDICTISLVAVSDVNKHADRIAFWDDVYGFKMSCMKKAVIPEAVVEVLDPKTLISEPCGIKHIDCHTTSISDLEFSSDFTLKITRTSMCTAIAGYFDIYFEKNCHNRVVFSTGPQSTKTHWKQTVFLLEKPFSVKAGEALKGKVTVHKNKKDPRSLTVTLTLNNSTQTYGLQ

| IC50 [µM] | Compound |
| --- | --- |
| 3.54 | CCCc1ccc(-c2n[nH]cc2CN(C)CCNC)cc1 [Compound 20] |
| 2.3 | CNCCN(C)Cc1c[nH]nc1-c1cccc([N+](=O)[O-])c1 [Compound 21] |
| 0.202 | CNCCN(C)Cc1c[nH]nc1-c1ccc(CO)cc1 [Compound 28] |
| 1.89 | CNCCN(C)Cc1c[nH]nc1-c1ccc(N)cc1 [Compound 33] |
| 0.25 | CNCCN(C)Cc1c[nH]nc1-c1ccc(Oc2ccccc2)cc1 [Compound 37] |
| 4.43 | CNCCN(C)Cc1c[nH]nc1-c1ccc(F)cc1F [Compound 49] |
| 5.01 | CNCCN(C)Cc1c[nH]nc1-c1ccc(F)c(F)c1 [Compound 51] |
| 5.25 | CNCCN(C)Cc1c[nH]nc1-c1ccc(OC)c(F)c1 [Compound 52] |
| 3.35 | CNCCN(C)Cc1c[nH]nc1-c1cccc2ccccc12 [Compound 57] |
| 3.16 | CNCCN(C)Cc1c[nH]nc1-c1ccc2ccccc2c1 [Compound 58] |
| 4.13 | CCN(CCN)Cc1c[nH]nc1-c1ccc(F)cc1 [Compound 62] |
| 4.36 | CN(CCN)Cc1c[nH]nc1-c1ccc(C#N)cc1 [Compound 68] |

| Compound | IC50 [µM] |
| --- | --- |
| CNCCN(C)Cc1c[nH]nc1-c1ccc(F)cc1 [Compound 2, N^1-((3-(4-fluorophenyl)-1H-pyrazol-4-yl)methyl)-N^1,N^2-dimethylethane-1,2-diamine] | 4.48 |
| CNCCN(C)Cc1c[nH]nc1-c1ccc(C(=O)c2ccccc2)cc1 [Compound 45] | 5.53 |

— patent US9776972B2, “Pyrazole derivatives as arginine methyltransferase inhibitors and uses thereof” (priority 2013, dated 2017)
